Experimental data reported in US8143282B2, “Heterocyclic compounds” (S*BIO Pte Ltd., priority 2005, dated 2012).

Assays:
HDAC1 enzyme = biological target: T1, HDAC1 enzyme (Homo sapiens, UniProt Q13547); experiment: In vitro HDAC assay for determination of IC50 values (BIOMOL fluorescent-based HDAC activity assay); format: biochemical
T1 construct: Amplification of human HDAC1 coding region from this cDNA library was cloned separately into the baculovirus expression pDEST20 vector; made in house; host or cells: SF9 insect cells, pDEST20-HDAC1 baculovirus
T1 sequence (Q13547 whole entry): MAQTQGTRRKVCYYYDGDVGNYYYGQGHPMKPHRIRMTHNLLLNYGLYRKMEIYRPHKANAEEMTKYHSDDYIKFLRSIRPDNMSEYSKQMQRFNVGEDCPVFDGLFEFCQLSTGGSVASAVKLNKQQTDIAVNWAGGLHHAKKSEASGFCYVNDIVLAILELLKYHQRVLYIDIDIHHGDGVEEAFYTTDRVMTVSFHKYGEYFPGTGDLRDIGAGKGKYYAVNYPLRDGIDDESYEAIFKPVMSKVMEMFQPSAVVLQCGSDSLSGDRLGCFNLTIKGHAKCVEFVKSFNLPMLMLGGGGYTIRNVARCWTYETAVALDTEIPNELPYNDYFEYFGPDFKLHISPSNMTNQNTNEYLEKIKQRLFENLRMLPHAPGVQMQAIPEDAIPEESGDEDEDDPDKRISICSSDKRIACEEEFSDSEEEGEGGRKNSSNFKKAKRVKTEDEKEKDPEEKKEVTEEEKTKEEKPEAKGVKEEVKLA
Procedure: Human cDNA library was prepared using cultured SW620 cells. Amplification of human HDAC1 coding region from this cDNA library was cloned separately into the baculovirus expression pDEST20 vector (GATEWAY Cloning Technology, Invitrogen Pte Ltd). The pDEST20-HDAC1 construct was confirmed by DNA sequencing. Recombinant baculovirus was prepared using the Bac-To-Bac method following the manufacturer's instruction (Invitrogen Pte Ltd).
Expression of GST-HDAC1 was done by infecting SF9 cells (Invitrogen Pte Ltd) with pDEST20-HDAC1 baculovirus at MOI=1 for 48 h. Soluble cell lysate was incubated with pre-equilibrated Glutathione Sepharose 4B beads (Amersham) at 4° C. for 2 h. The beads were washed with PBS buffer for 3 times. The GST-HDAC1 protein was eluted by elution buffer containing 50 mM Tris, pH8.0, 150 mM NaCl, 1% Triton X-100 and 10 mM or 20 mM reduced Glutathione. The purified GST-HDAC1 protein was dialyzed with HDAC storage buffer containing 10 mM Tris, pH7.5, 100 mM NaCl and 3 mM MgCl2. 20% Glycerol was added to purified GST-HDAC1 protein before storage at −80° C.
The assay has been carried out in 96 well format and the BIOMOL fluorescent-based HDAC activity assay has been applied. […] Flur de lys Developer was added and the reaction was incubated for 10 min. Briefly, deacetylation of the substrate sensitizes it to the developer, which then generates a fluorophore. The fluorophore is excited with 360 nm light and the emitted light (460 nm) is detected on a fluorometric plate reader (Tecan Ultra Microplate detection system, Tecan Group Ltd.).
The analytical software, Prism 4.0 (GraphPad Software Inc) has been used to generate IC50 from a series of data.

Colo205 cells = experiment: Cell-based proliferation assay for GI50 (CyQUANT), Colo205; settings: Homo sapiens, COLO 205, 96 h treatment, read-out: Cellular or Growth Inhibition Activity in Colo205 cells, GI50
Procedure: Human colon cancer cell lines (Colo205, HCT116), Ovarian cancer cell line (A2780), Hepatoma cell line (HEP3B), Prostate cancer cell line (PC3) were obtained from ATCC or ECACC. Colo205 cells were cultivated in RPMI 1640 containing 2 mM L-Glutamine, 5% FBS, 1.0 mM Na Pyruvate, 1 U/ml of penicillin and 1 μg of streptomycin. HCT116 cells were cultivated in McCoy's containing RPMI 1640 containing 2 mM L-Glutamine, 5% FBS, 1 U/ml of penicillin and 1 μg of streptomycin. A2780 cells were cultivated in RPMI 1640 containing 2 mM L-Glutamine, 5% FBS, 1 U/ml of penicillin and 1 μg of streptomycin. HEP3B cells were cultivated in EMEM containing 2 mM L-glutamine, 5% FBS, 1% non essential amino acid, 1 mM Na Pyruvate, 1 U/ml of penicillin and 1 μg of streptomycin. PC3 cells were cultivated in F12K, 2 mM L-glutamine, 5% FBS, 1 U/ml of penicillin and 1 μg of streptomycin. PC3, Colo205, and HCT116 cells were seeded in 96-wells plate at 1000, 5000 and 6000 cells per well respectively. A2780 and HEP3B cells were seeded in 96-wells plate at 4000 cells per well respectively. The plates were incubated at 37° C., 5% CO2, for 24 h. Cells were treated with compounds at various concentrations for 96 h. Cell growth was then monitored using CyQUANT® cell proliferation assay (Invitrogen Pte Ltd). Dose response curves were plotted to determine GI50 values for the compounds using XL-fit (ID Business Solution, Emeryville, Calif.). GI50 is defined as the concentration of compound required for 50% inhibition of cell growth.

CCCCc1nc2cc(/C=C/C(=O)NO)ccc2n1CCN(C)CC [Compound 85, 3-{2-Butyl-1-[2-(ethyl-methyl-amino)-ethyl]-1H-benzoimidazol-5-yl}-N-hydroxy-acrylamide]
IC50 (HDAC1 enzyme): 110 nM
GI50 (Colo205 cells): 1520 nM

CCCCc1nc2cc(/C=C/C(=O)NO)ccc2n1C1CCN(Cc2ccccc2)CC1 [Compound 48, 3-[1-(1-Benzyl-piperidin-4-yl)-2-butyl-1H-benzoimidazol-5-yl]-N-hydroxy-acrylamide]
IC50 (HDAC1 enzyme): 430 nM
GI50 (Colo205 cells): 780 nM

CCCCc1nc2cc(/C=C/C(=O)NO)ccc2n1C1CCNCC1 [Compound 70, 3-(2-Butyl-1-piperidin-4-yl-1H-benzoimidazol-5-yl)-N-hydroxy-acrylamide]
IC50 (HDAC1 enzyme): 68 nM
GI50 (Colo205 cells): 7000 nM

CC(C)Cc1nc2cc(/C=C/C(=O)NO)ccc2n1CCN(C(C)C)C(C)C [Compound 21, 3-[1-(2-Diisopropylamino-ethyl)-2-isobutyl-1H-benzoimidazol-5-yl]-N-hydroxy-acrylamide]
IC50 (HDAC1 enzyme): 380 nM
GI50 (Colo205 cells): 2510 nM

CCN(CC)CCn1cnc2cc(/C=C/C(=O)NO)ccc21 [Compound 100, (E)-3-(1-(2-(diethylamino)ethyl)-1H-benzo[d]imidazol-5-yl)-N-hydroxyacrylamide]
IC50 (HDAC1 enzyme): 190 nM
GI50 (Colo205 cells): 2250 nM

CCCN(CCn1cnc2cc(/C=C/C(=O)NO)ccc21)C(C)C [Compound 107, (E)-N-hydroxy-3-(1-(2-(isopropyl(propyl)amino)ethyl)-1H-benzo[d]imidazol-5-yl)acrylamide]
IC50 (HDAC1 enzyme): 74 nM
GI50 (Colo205 cells): 630 nM

CC(Cc1nc2cc(/C=C/C(=O)NO)ccc2n1CCN)CC(C)(C)C (stereo not drawn) [Compound 55, 3-[1-(2-Amino-ethyl)-2-(2,4,4-trimethyl-pentyl)-1H-benzoimidazol-5-yl]-N-hydroxy-acrylamide]
IC50 (HDAC1 enzyme): 37 nM
GI50 (Colo205 cells): 910 nM

CCCCCc1nc2cc(/C=C/C(=O)NO)ccc2n1CCN(CC)CCCO [Compound 92, 3-(1-{2-[Ethyl-(3-hydroxy-propyl)-amino]-ethyl}-2-pentyl-1H-benzoimidazol-5-yl)-N-hydroxy-acrylamide]
IC50 (HDAC1 enzyme): 50 nM
GI50 (Colo205 cells): 1820 nM

CCCCCCN(CC)CCn1c(C(F)(F)F)nc2cc(/C=C/C(=O)NO)ccc21 [Compound 118, 3-{1-[2-(Ethyl-hexyl-amino)-ethyl]-2-trifluoromethyl-1H-benzoimidazol-5-yl}-N-hydroxy-acrylamide]
IC50 (HDAC1 enzyme): 480 nM
GI50 (Colo205 cells): 1880 nM

CC(C)(C)CCNCCn1c(CC(C)(C)C)nc2cc(/C=C/C(=O)NO)ccc21 [Compound 131, 3-[1-[2-(3,3-Dimethyl-butylamino)-ethyl]-2-(2,2-dimethyl-propyl)-1H-benzoimidazol-5-yl]-N-hydroxy-acrylamide]
IC50 (HDAC1 enzyme): 66 nM
GI50 (Colo205 cells): 330 nM

CC(C)CN(CCn1cnc2cc(/C=C/C(=O)NO)ccc21)CC(C)C [Compound 125, (E)-3-(1-(2-(diisobutylamino)ethyl)-1H-benzo[d]imidazol-5-yl)-N-hydroxyacrylamide]
IC50 (HDAC1 enzyme): 160 nM
GI50 (Colo205 cells): 680 nM

CC(C)N(CCCC(F)(F)F)CCn1cnc2cc(/C=C/C(=O)NO)ccc21 [Compound 114, (E)-N-hydroxy-3-(1-(2-(isopropyl(4,4,4-trifluorobutyl)amino)ethyl)-1H-benzo[d]imidazol-5-yl)acrylamide]
IC50 (HDAC1 enzyme): 63 nM
GI50 (Colo205 cells): 720 nM

CC(C)(C)CCN(CCn1cnc2cc(/C=C/C(=O)NO)ccc21)CCC(C)(C)C [Compound 124, (E)-3-(1-(2-(bis(3,3-dimethylbutyl)amino)ethyl)-1H-benzo[d]imidazol-5-yl)-N-hydroxyacrylamide]
IC50 (HDAC1 enzyme): 85 nM
GI50 (Colo205 cells): 540 nM

CSc1nc2cc(/C=C/C(=O)NO)ccc2n1CC(C)(C)CN(C)C [Compound 129, 3-[1-(3-Dimethylamino-2,2-dimethyl-propyl)-2-methylsulfanyl-1H-benzoimidazol-5-yl]-N-hydroxy-acrylamide]
IC50 (HDAC1 enzyme): 770 nM
GI50 (Colo205 cells): 3900 nM

CC(Cc1nc2cc(/C=C/C(=O)NO)ccc2n1CCN(C)C)CC(C)(C)C (stereo not drawn) [Compound 51, 3-[1-(2-Dimethylamino-ethyl)-2-(2,4,4-trimethyl-pentyl)-1H-benzoimidazol-5-yl]-N-hydroxy-acrylamide]
IC50 (HDAC1 enzyme): 66 nM
GI50 (Colo205 cells): 260 nM

CCCCCN1CCCC(n2cnc3cc(/C=C/C(=O)NO)ccc32)C1 (stereo not drawn) [Compound 94, (E)-N-hydroxy-3-(1-(1-pentylpiperidin-3-yl)-1H-benzo[d]imidazol-5-yl)acrylamide]
IC50 (HDAC1 enzyme): 64 nM
GI50 (Colo205 cells): 600 nM

CC/C=C\CCc1nc2cc(/C=C/C(=O)NO)ccc2n1CCN(C(C)C)C(C)C [Compound 27, 3-[1-(2-Diisopropylamino-ethyl)-2-hex-3-enyl-1H-benzoimidazol-5-yl]-N-hydroxy-acrylamide]
IC50 (HDAC1 enzyme): 230 nM
GI50 (Colo205 cells): 1420 nM

CCCC(C)CN(CCn1cnc2cc(/C=C/C(=O)NO)ccc21)C(C)C (stereo not drawn) [Compound 113, N-Hydroxy-3-(1-{2-[isopropyl-(2-methyl-pentyl)-amino]-ethyl}-1H-benzoimidazol-5-yl)-acrylamide]
IC50 (HDAC1 enzyme): 16 nM
GI50 (Colo205 cells): 610 nM

CCN(CC)CCn1c(CC(C)(C)C)nc2cc(/C=C/C(=O)NO)ccc21 [Compound 17, 3-[1-(2-Diethylamino-ethyl)-2-(2,2-dimethyl-propyl)-1H-benzoimidazol-5-yl]-N-hydroxy-acrylamide]
IC50 (HDAC1 enzyme): 130 nM
GI50 (Colo205 cells): 1190 nM

CC(Cc1nc2cc(/C=C/C(=O)NO)ccc2n1CCN(C(C)C)C(C)C)CC(C)(C)C (stereo not drawn) [Compound 38, 3-[1-(2-Diisopropylamino-ethyl)-2-(2,4,4-trimethyl-pentyl)-1H-benzoimidazol-5-yl]-N-hydroxy-acrylamide]
IC50 (HDAC1 enzyme): 560 nM
GI50 (Colo205 cells): 1940 nM

CCCC(=O)NCc1nc2cc(/C=C/C(=O)NO)ccc2n1CCN(CC)CC [Compound 62, N-[1-(2-Diethylamino-ethyl)-5-(2-hydroxycarbamoyl-vinyl)-1H-benzoimidazol-2-ylmethyl]-butyramide]
IC50 (HDAC1 enzyme): 54 nM
GI50 (Colo205 cells): 2600 nM

CC/C=C\CCc1nc2cc(/C=C/C(=O)NO)ccc2n1CCCNC(C)C [Compound 29, 3-[2-Hex-3-enyl-1-(3-isopropylamino-propyl)-1H-benzoimidazol-5-yl]-N-hydroxy-acrylamide]
IC50 (HDAC1 enzyme): 130 nM
GI50 (Colo205 cells): 1920 nM

CC(C)(C)CCN(CCn1cnc2cc(/C=C/C(=O)NO)ccc21)CC(F)(F)F [Compound 137, 3-(1-{2-[(3,3-Dimethyl-butyl)-(2,2,2-trifluoro-ethyl)-amino]-ethyl}-1H-benzoimidazol-5-yl)-N-hydroxy-acrylamide]
IC50 (HDAC1 enzyme): 93 nM
GI50 (Colo205 cells): 1970 nM

CCCc1nc2cc(/C=C/C(=O)NO)ccc2n1CCN(CC)CC [Compound 42, 3-[1-(2-Diethylamino-ethyl)-2-propyl-1H-benzoimidazol-5-yl]-N-hydroxy-acrylamide]
IC50 (HDAC1 enzyme): 150 nM
GI50 (Colo205 cells): 980 nM

CCOCc1nc2cc(/C=C/C(=O)NO)ccc2n1CC(C)(C)CN(C)C [Compound 5, 3-[1-(3-Dimethylamino-2,2-dimethyl-propyl)-2-ethoxymethyl-1H-benzoimidazol-5-yl]-N-hydroxy-acrylamide]
IC50 (HDAC1 enzyme): 170 nM
GI50 (Colo205 cells): 2580 nM

CCCN(CCC)CCn1cnc2cc(/C=C/C(=O)NO)ccc21 [Compound 120, 3-[1-(2-Dipropylamino-ethyl)-1H-benzoimidazol-5-yl]-N-hydroxy-acrylamide]
IC50 (HDAC1 enzyme): 110 nM
GI50 (Colo205 cells): 490 nM

O=C(/C=C/c1ccc2c(c1)ncn2C1CCN(CCc2ccccc2)C1)NO (stereo not drawn) [Compound 93, (E)-N-hydroxy-3-(1-(1-phenethylpyrrolidin-3-yl)-1H-benzo[d]imidazol-5-yl)acrylamide]
IC50 (HDAC1 enzyme): 230 nM
GI50 (Colo205 cells): 2140 nM
